According to ChEMBL document CHEMBL5120802, “Kumemicinones A-G, Cytotoxic Angucyclinones from a Deep Sea-Derived Actinomycete of the Genus Actinomadura” (J Nat Prod, 2022):

Test: Cytotoxicity against mouse P388 cells assessed as reduction in cell viability measured after 72 hrs by XTT assay
Assay type: functional, cell-based
Settings: P388, 72 h
Compound `CC1=C[C@@H]2O[C@]34CC[C@](O)(C1)[C@H]2[C@]3(O)[C@@H](O)c1cccc(O)c1C4=O` has an IC50 of 28.6 µM. In the case of `CC1=C[C@@H](O)[C@H]2[C@](O)(CC[C@]3(Oc4cccc5c4C(=O)[C@]46CC[C@]7(O)CC(C)=C[C@@H](O)[C@@H]7[C@]4(O6)[C@H]5O)C(=O)c4c(O)cccc4[C@H](O)[C@@]23O)C1`, the IC50 is reported as 9.7 µM. `CC1=CC(=O)C2=C3[C@@H](O)c4cccc(O)c4C(=O)[C@]3(O)CC[C@]2(O)C1` gave an IC50 of 12 µM. In the case of `C[C@@]1(O)C=C[C@H]2[C@](O)(CC[C@]34O[C@]23[C@@H](O)c2cccc(O)c2C4=O)C1`, the IC50 is reported as 7.6 µM. Work on `CC1=C[C@@H](O)[C@H]2[C@](O)(CC[C@]34O[C@]23[C@@H](O)c2cccc(O[C@]35CC[C@]6(O)C[C@@](C)(O)C=C[C@@H]6[C@]3(O)[C@@H](O)c3cccc(O)c3C5=O)c2C4=O)C1` yielded an IC50 of 10.7 µM. `C[C@]1(O)C=C[C@H]2[C@](O)(CC[C@]34O[C@]23[C@@H](O)c2cccc(O)c2C4=O)C1` showed an IC50 of 1.8 µM. Work on `CC1=C[C@@H](O)[C@@H]2C(=O)[C@@]3(CC[C@]2(O)C1)C(=O)c1c(O)cccc1[C@H]3O` yielded an IC50 of 53.3 µM. Compound `CC1=C[C@@H](O)[C@H]2[C@](O)(CC[C@]34O[C@]23[C@@H](O)c2cccc(O)c2C4=O)C1` has an IC50 of 1.7 µM. With `Cc1ccc2c(c1)CC[C@]1(S[C@]34CCc5cc(C)ccc5[C@]3(O)[C@@H](O)c3cccc(O)c3C4=O)C(=O)c3c(O)cccc3[C@H](O)[C@@]21O` the IC50 was 6.1 µM.
